Test results taken from patent US20250228818A1, “PHARMACEUTICAL COMBINATION CONTAINING CAPSID PROTEIN INHIBITOR AND REVERSE TRANSCRIPTASE INHIBITOR” (priority 2021, published 2025).

Test system: rAAV8-1.3HBV
Test: AAV/HBV mouse model experiment (serum HBV DNA)
Type: in vivo, mouse (male, C57BL/6)
Settings: mean ± standard error; for HBV DNA in mouse serum, day 7 / HBV DNA in mouse serum, day 14 / HBV DNA in mouse serum, day 21 / HBV DNA in mouse serum, day 28: i.g. QD day 0-27; for HBV DNA in mouse serum, day −2: day −2 (before first administration)
Procedure: rAAV8-1.3HBV (source: Beijing FivePlus Molecular Medicine Institute, titer: 1×10^12 v·g/mL) was used to establish an AAV/HBV mouse model (species: male, C57BL/6), and the mice were randomized into groups.
The compound of formula I was dissolved in DMSO, and PEG-400 was added to prepare a 1 mg/mL clear solution, which was then gradually diluted with the vehicle to 0.3 mg/mL, 0.1 mg/mL, and 0.03 mg/mL. After preparation, the dilutions were stored at room temperature.
Entecavir was dissolved in DMSO to prepare a 1 mg/mL solution, which was then gradually 1000-fold diluted with normal saline (NS) to 0.001 mg/mL. The dilution was aliquoted at 1 mL/tube to serve as a stock solution and stored in a freezer at −20° C. Each day, one tube was taken, and the solution in the tube was 10-fold diluted with NS to achieve the required administration concentration of 0.0001 mg/mL for daily administration.
rAAV8-1.3HBV (type D, ayw) was purchased from Beijing FivePlus Gene Technology Co., Ltd., with a titer of 1×10^12 v·g/mL.
Hepatitis B virus nucleic acid assay kit (Sansure Biotech Inc.), high-speed refrigerated centrifuge (Sorvall Legend), and real-time fluorescent quantitative PCR instrument (TL988).
AAV-HBV mouse model: rAAV8-1.3HBV was prepared into a solution with a concentration of 5×10^11 v·g/mL by sterile PBS in advance before injection. Each mouse was injected with 200 μL of the solution via the tail vein, with 1×10^11 v·g per mouse.
Blood sampling before grouping: On day 14 after the virus injection, all infected mice were subjected to blood sampling (approximately 100 μL per mouse) via the orbital vein for serum collection. After the whole blood was left to stand at room temperature for 30 min, serum was collected by centrifugation at 3000 rpm at 4° C. for 10 min. The collected serum was stored at −80° C. for HBV DNA, HBeAg and HBsAg detection.
Compound treatment: All mice were subjected to intragastric administration with the solvent or the compound. The day of the first administration was set as day 0 of the experiment, and the duration of administration was from day 0 to day 27. Entecavir was administered once daily (QD), and the compound of formula I was administered […]. The administration volume was 10 mL/kg.
The experimental method referred to the instructions of the hepatitis B virus nucleic acid assay kit. 5 μL of the nucleic acid release agent was added into each PCR reaction tube, and then 5 μL of the test serum, a negative control, a positive control and a quantitative reference substance were added separately. The mixture was then lysed for 10 min, and then 40 μL of PCR-mix was added, achieving a total volume of 50 μL in the system. Reaction conditions: 50° C. for 2 min, 1 cycle; 94° C. for 5 min, 1 cycle; 94° C. for 15 s, 57° C. for 30 s, 45 cycles; 25° C. for 10 s, 1 cycle. 2.4. Results in Tables 4-1 and 4-2

[1] = compound of formula I 10 mg/kg (iv), with entecavir 0.001 mg/kg (vi)
[2] = entecavir 0.001 mg/kg (ii), compound of formula I 1 mg/kg (iii), both (v)
[3] = groups: entecavir 0.001 mg/kg (ii), compound of formula I 1 mg/kg (iii), both (v)

SMILES | HBV DNA in mouse serum, day 7 [1] | HBV DNA in mouse serum, day 7 [2] | HBV DNA in mouse serum, day 14 [1] | HBV DNA in mouse serum, day 14 [2] | HBV DNA in mouse serum, day 21 [1] | HBV DNA in mouse serum, day 21 [2] | HBV DNA in mouse serum, day 28 [1] | HBV DNA in mouse serum, day 28 [2] | HBV DNA in mouse serum, day 35 (day 35 (administration ended day 27), compound of formula I 10 mg/kg (iv), with entecavir 0.001 mg/kg (vi)) | HBV DNA in mouse serum, day 42 (day 42 (administration ended day 27), compound of formula I 10 mg/kg (iv), with entecavir 0.001 mg/kg (vi)) | HBV DNA in mouse serum, day −2 (groups: compound of formula I 10 mg/kg (iv), with entecavir 0.001 mg/kg (vi)) | HBV DNA in mouse serum, day −2 [3]
Cc1c(C(=O)Nc2ccc(F)c(C#N)c2)c(C)n(C)c1C(=O)C(=O)N[C@@H](C)C(F)(F)F [Compound of formula I, (S)—N-(3-cyano-4-fluorophenyl)-1,2,4-trimethyl-5-(2-oxo-2-((1,1,1-trifluoropropan-2-yl)amino)acetyl)-1H-pyrrole-3-carboxamide] | 4.72 ± 0.86 log10, copy/μL | 6.16 ± 0.36 log10, copy/μL | 3.97 ± 0.45 log10, copy/μL | 5.48 ± 0.34 log10, copy/μL | 3.97 ± 0.31 log10, copy/μL | 5.23 ± 0.33 log10, copy/μL | 3.75 ± 0.35 log10, copy/μL | 5.42 ± 0.38 log10, copy/μL | 3.77 ± 0.45 log10, copy/μL | 5.18 ± 0.74 log10, copy/μL | 7.97 ± 0.22 log10, copy/μL | 7.71 ± 0.27 log10, copy/μL
C=C1[C@H](CO)[C@@H](O)C[C@@H]1n1cnc2c(=O)[nH]c(N)nc21 [Entecavir, 2-amino-9-[(1S,3R,4S)-4-hydroxy-3-hydroxymethyl-2-methylenecyclopentyl]-1,9-dihydro-6H-purin-6-one, reference compound] |  | 5.17 ± 0.54 log10, copy/μL |  | 5.30 ± 0.30 log10, copy/μL |  | 5.22 ± 0.46 log10, copy/μL |  | 5.46 ± 0.45 log10, copy/μL |  |  |  | 7.78 ± 0.28 log10, copy/μL
